One assay has as its system Human lymphocytes. Description: Immunosuppressive activity, 3H-thymidine incorporation in concanavalin A activated lymphocytes. It counts as cell-based. As to conditions: Lymphocyte, 72 hours, [3H]-TdR, read-out: Human lymphocytes ED50. An excerpt: One of the most important parameters of specific cellular immunity is proliferative response of lymphocytes to antigens or polyclonal mitogens. The majority of normal mammalian peripheral lymphocytes comprise resting cells. Antigens or nonspecific polyclonal mitogens have the capacity to activate lymphoid cells and this is accompanied by dramatic changes of intracellular metabolism (mitochondrial activity, protein synthesis, nucleic acids synthesis, formation of blastic cells and cellular proliferation). […] Variety of in vitro assays was developed to measure proliferative response of lymphocytes. The most commonly used is ^3H-thymidine incorporation method.
During cell proliferation, DNA has to be replicated before the cell is divided into two daughter cells. This close association between cell doublings and DNA synthesis is very attractive for assessing cell proliferation. If labelled DNA precursors are added to the cell culture, cells that are about to divide incorporate the labelled nucleotide into their DNA. Traditionally, those assays usually involve the use of radiolabelled nucleosides, particularly tritiated thymidine ([^3H]-TdR). The amount of [^3H]-TdR incorporated into the cellular DNA is quantified by liquid scintillation counting.
Human heparinized peripheral blood was obtained from healthy volunteers by cubital vein punction. The blood was diluted in PBS (1:3) and mononuclear cells were separated by centrifugation in Ficoll-Hypaque density gradient (Pharmacia, 1.077 g/ml) at 2200 rpm for 30 minutes. Following centrifugation, lymphocytes were washed in PBS and resuspended in cell culture medium (RMPI 1640, 2 mM glutamine, 100 U/ml penicillin, 100 μg/ml streptomycin, 10% fetal calf serum and sodium bicarbonate).
The cells were diluted at target density of 1,100,000 cells/ml were added by pipette (180 μl) into 96/well microtiter plates. Four-fold dilutions of the intended test concentration were added at time zero in 20 μl aliquots to the microtiter plate wells. Usually, test compound was evaluated at six 4-fold dilutions. In routine testing, the highest well concentration was 266.7 μM. All drug concentrations were examined in duplicates. All wells with exception of unstimulated controls were activated with 50 μl of concanavalin A (25 μg/ml). Incubations of cells with test compounds lasted for 72 hours at 37° C., in 5% CO2 atmosphere and 100% humidity. At the end of incubation period, the cells were assayed by using the [^3H]-TdR:
Cell cultures were incubated with 0.5 μCi (20 μl of stock solution 500 μCi/ml) per well for 6 hours at 37° C. and 5% CO2. The automated cell harvester was used to lyse cells in water and adsorb the DNA onto glass-fiber filters in the format of microtiter plate. The DNA incorporated [^3H]-TdR was retained on the filter while unincorporated material passes through. The filters were dried at room temperature overnight, sealed into a sample bag with 10-12 ml of scintillant. The amount of [^3H]-TdR present in each filter (in cpm) was determined by scintillation counting in a Betaplate liquid scintillation counter. The effective dose of immunosuppressant (ED) was calculated using the following equation: ED=(CCPMdrug exposed well/mean CCPMcontrol wells)×100%. The ED50 value, the drug concentration inhibiting proliferation of 50% of lymphocytes, was calculated from the obtained dose response curves.
For orientation: Uptake of a labelled nucleoside into DNA is a usual measure of proliferation.

Assay [1] deals with human diploid fibroblasts (HCA cells). Kind of assay: Senescence, beta-galactosidase staining of human diploid fibroblasts. It counts as cell-based. As to conditions: for SENESCENT CELLS (%) HCA25: passage 25; for SENESCENT CELLS (%) HCA45: passage 45; for SENESCENT CELLS (%) HCA80: passage 80. The method, then: In this example, human diploid fibroblasts (HCA cells of various passage levels: passage 25—designated HCA25; passage 45—designated HCA45; passage 80—designated HCA80) were stained for β-galactosidase activity. The medium used for cell cultivation was removed, the cells were washed twice in […], and fixed in 2-3 ml of fixing solution comprised of a 2% formaldehyde and 0.2% glutaraldehyde in PBS. The cells were incubated at room temperature for 5 minutes, then washed twice with PBS. The cells were subsequently incubated at 37° C. (without CO2) for 1 to 16 hours in 2-3 ml of a solution comprising potassium ferricyanide (5 mM), potassium ferrocyanide (5 mM), MgCl2 (2 mM), X-gal (5-bromo-4-chloro-3-indolyl-β-D-galactopyranoside) (1 mg/ml), in citric/phosphate buffer, pH 6.0). […] In this experiment, senescent cells, but not other cells were stained blue due to the action of β-galactosidase on the substrate (FIG. 4).

For the next assay, the system named is HOS. Description: Calcein AM cytotoxicity, HOS. It counts as cell-based. As to conditions: Homo sapiens, HOS, 72 h. An excerpt: One of the parameters used, as the basis for cytotoxicity assays, is the metabolic activity of viable cells. For example, a microtiter assay, which uses the Calcein AM, is now widely used to quantitate cell proliferation and cytotoxicity. For instance, this assay is used in drug screening programs and in chemosensitivity testing. Because only metabolically active cells cleave Calcein AM, these assays detect viable cells exclusively. The quantity of reduced Calcein AM corresponds to the number of vital cells in the culture.
Human T-lymphoblastic leukemia cell line CEM; promyelocytic HL-60 and monocytic U937 leukemias; breast carcinoma cell lines MCF-7, BT549, MDA-MB-231; glioblastoma U87MG cells; cervical carcinoma cells HELA; sarcoma cells U2OS and Saos2; hepatocellular carcinoma HepG2; mouse fibroblasts NIH3T3; mouse immortalized bone marrow macrophages B2.4 and B10A.4; P388D1 and L1210 leukemia; B16 and B16F10 melanomas were used for routine screening of compounds. The cells were maintained in Nunc/Corning 80 cm^2 plastic tissue culture flasks and cultured in cell culture medium (DMEM with 5 g/l glucose, 2 mM glutamine, 100 U/ml penicillin, 100 μg/ml streptomycin, 10% fetal calf serum and sodium bicarbonate).
The cell suspensions that were prepared and diluted according to the particular cell type and the expected target cell density (2.500-30.000 cells per well based on cell growth characteristics) were added by pipette (80 μl) into 96/well microtiter plates. Inoculates were allowed a pre-incubation period of 24 hours at 37° C. and 5% CO2 for stabilisation. Four-fold dilutions of the intended test concentration were added at time zero in 20 μl aliquots to the microtiter plate wells. Usually, test compound was evaluated at six 4-fold dilutions. In routine testing, the highest well concentration was […], but it can be the matter of change dependent on the agent. All drug concentrations were examined in duplicates. Incubations of cells with the test compounds lasted for 72 hours at 37° C., in 5% CO2 atmosphere and 100% humidity. At the end of incubation period, the cells were assayed by using the Calcein AM. Ten microliters of the stock solution were pipetted into each well and incubated further for 1 hours. Fluorescence (FD) was measured with the Labsystem FIA Reader Fluoroscan Ascent (UK). The tumour cell survival (GI50) was calculated using the following equitation: TCS═(FDdrug exposed well/mean FDcontrol wells)×100%. The GI50 value, the drug concentration lethal to 50% of the tumour cells, was calculated from the obtained dose response curves (FIG. 1).

For assay [2], the system named is Rosa hybrida (pot rose cultivar) explants. Kind of assay: In vitro and post vitro shoot multiplication and rooting of rose. The format is in vivo. The method, then:
The aim of this experiment was to test whether the new compounds are of practical use in tissue culture practice. The multiplication rate was investigated and the post vitro effects on rooting were examined. Rosa hybrida (pot rose cultivar) was cultured in 350 ml vessels with a screw on polycarbonate lid. Each culture vessel contained 100 ml autoclaved medium (120° C., 20 min). The cultures were maintained at 23±2° C. under a 16 h photoperiod at 40 μM m^−2 s^−1 PAR. The basal medium (BMR) contained Murashige and Skoog (1962) macroelements, microelements and vitamins, 95 μM NaFeEDTA, 555 μM myo-inositol, 111 mM sucrose, 1.332 mM glycine, 684 μM L-glutamine and 7 g/l agar. This medium was supplemented with 10 μM BA, mT, oMeOBAP or mMeOBAP (compound no. 14 and 15, respectively). The control medium didn't contain any cytokinin. After a culture period of 8 weeks, the number of induced shoots per explant was determined, as well as root number/explant and total root length/explant. The roots were removed and the explants (shoot clusters) were planted in unfertilised peat. After four weeks of acclimatising in a fog unit, root number and root length was determined.

The subject of assay [3] is Rosa hybrida 'Pailin' explants. Kind of assay: Early shoot senescence of tissue cultured roses. The format is in vivo. To be noted: 10 μM in medium. The method, then: Rosa hybrida ‘Pailin’ (a cut rose) was cultured in 350 ml vessels with a screw on polycarbonate lid. Each culture vessel contained 100 ml autoclaved medium (120° C., 20 min). The cultures were maintained at 23±2° C. under a 16 h photoperiod at 40 μM m^−2 s^−1 PAR. The basal medium (BMR) contained Murashige and Skoog (1962) macroelements, microelements and vitamins, 36.7 mg/l NaFeEDTA, 50 mg/l NaFeEDDHA, 100 mg/l […] myo-inositol, 30 g/l sucrose, 100 mg/l glycine, 50 mg/l calcium pantothenate, 100 mg/l L-glutamine and 7 g/l agar-agar. This medium was supplemented with 10 μM BA, mT and mMeOBAP. The last 2 cytokinins were filter sterilised and added after autoclaving the medium in the vessels. The control medium didn't contain any cytokinin. After a culture period of 6 weeks, scoring senescence symptoms was started.

Setting [4] is: Ex vitro, four weeks of acclimatising.

Structures are written as SMILES.

The IC50 is the concentration that inhibits the measured activity by half.

For the molecule `Nc1ccc(Nc2ncnc3nc[nH]c23)cc1Cl` [3-chloro-4-aminoanilino, 6-(3-chloro-4-aminoanilino)purine], the EC50 in the assay on Human lymphocytes was determined as 12 µM. Further, in assay [1], the “SENESCENT CELLS (%) HCA25” value was 5%, the “SENESCENT CELLS (%) HCA45” value was found to be 5% and the “SENESCENT CELLS (%) HCA80” value was determined as 24%.
Take `Clc1ccc(Nc2ncnc3nc[nH]c23)cc1` [4-chloroanilino, 6-(4-chloroanilino)purine]: the EC50 in the assay on Human lymphocytes was determined as 6.2 µM. Further, in assay [1], the “SENESCENT CELLS (%) HCA25” value worked out at 5%, the “SENESCENT CELLS (%) HCA45” value was found to be 5% and the “SENESCENT CELLS (%) HCA80” value was determined as 26%.
For the molecule `Clc1cccc(Nc2ncnc3nc[nH]c23)c1` [3-chloroanilino, 6-(3-chloroanilino)purine], in the assay on Human lymphocytes, the EC50 stood at 7.2 µM. Further, in assay [1], the “SENESCENT CELLS (%) HCA25” value amounted to 4%, the “SENESCENT CELLS (%) HCA45” value was 5% and the “SENESCENT CELLS (%) HCA80” value is recorded as 25%.
Turning to `c1ccc(CNc2ncnc3nc[nH]c23)cc1` [BAP, 6-benzylaminopurine, reference compound], in the assay with HOS, the concentration for half-maximal inhibition (IC50) is more than 167 µM. Moreover, in assay [2] (10 μM), the “shoot multiplication and rooting, in words” value was “high shoot multiplication rate, but the shoots rooted badly”. For the same molecule, in assay [2] (setting [4]), the “Root number per plant” value is given as 0.6 and the “Total root length per plant” value is 1.1 cm. In assay [2] (In vitro, 10 μM, 8 weeks), the “Flower number per explant” value was 0.00, the “Number of new shoots per explant” value was 3.8, the “Root number per explant” value was found to be 0.0 and the “Total root length per explant” value was determined as 0.0 cm. Besides, in assay [3], the “relative number of dead plants in relation to culture time” value is “looks like a sigmoid curve”.
Consider `Nc1cc(Cl)cc(Nc2ncnc3nc[nH]c23)c1` [3-chloro-5-aminoanilino, 6-(3-chloro-5-aminoanilino)purine], for which the EC50 in the assay on Human lymphocytes is 12.4 µM. In assay [1], the “SENESCENT CELLS (%) HCA25” value was determined as 3%, the “SENESCENT CELLS (%) HCA45” value stood at 6% and the “SENESCENT CELLS (%) HCA80” value turned out to be 24%.
Consider `Nc1cc(Nc2ncnc3nc[nH]c23)ccc1Cl` [3-amino-4-chloroanilino, 6-(3-amino-4-chloroanilino)purine], for which, in the assay on Human lymphocytes, the EC50 was determined as 8.3 µM. Moreover, in assay [1], the “SENESCENT CELLS (%) HCA25” value is on record as 4%, the “SENESCENT CELLS (%) HCA45” value came out at 6% and the “SENESCENT CELLS (%) HCA80” value is given as 22%.
For `Brc1ccc(Nc2ncnc3nc[nH]c23)cc1` [4-bromoanilino, 6-(4-bromoanilino)purine], in that order: 4.7 µM, 5%, 3% and 25%.

Values taken from patent US8552013B2, “Heterocyclic compounds based on N6-substituted adenine, methods of their preparation, their use for preparation of drugs, cosmetic preparations and growth regulators, pharmaceutical preparations, cosmetic preparations and growth regulators containing these compounds” (USTAV Experimentalni Botaniky Akademie Ved Ceske Republiky, priority 2001, dated 2013).
